According to the supplement of paper PMC4862054:
Several values for one entry are separate records, joined by “and”; a condition that tells them apart may be missing. Equal entries are not always repeated.

Tests used:
MDA-MB-436 [1] = test: drug sensitivity score (DSS), CellTiter-Glo (DSS (AUC-based score)); higher = stronger drug effect (viability inhibition or cytotoxicity); extreme values may be limits of the assay; details: incubation time: 72 h
In short: (§1)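 Breast cancer cells were seeded into 384-well plates containing compound at 5 concentrations in 10-fold steps over a compound-specific 10,000-fold range and incubated 72 h. After CellTox Green and CellTiter-Glo readings, each plate was normalised to 0.1 % DMSO and a positive kill control. The drug sensitivity score rests on the area under the fitted dose-response curve.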

HCC1143 [2] = test: as above; details: incubation time: 72 h
In short: as §1

DU-4475 [3] = test: as above; details: incubation time: 72 h
In short: as §1

HCC1599 [4] = test: as above; details: incubation time: 72 h
In short: as §1

Hs578T [5] = test: as above; details: incubation time: 72 h
In short: as §1

SK-BR-3 [6] = test: as above; details: incubation time: 72 h
In short: as §1

MDA-MB-231 [7] = test: as above; details: incubation time: 72 h
In short: as §1

CAL-85-1 [8] = test: as above; details: incubation time: 72 h
In short: as §1

BT-549 [9] = test: as above; details: incubation time: 72 h
In short: as §1

BT-474 [10] = test: as above; details: incubation time: 72 h
In short: as §1

MDA-MB-436 [11] = test: normalised viability (% of control), CellTiter-Blue; higher = more viable cells (about 100 = DMSO control); details: 100 nM; incubation time: 72 h
Description: (§2)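 DSRT, CellTiter-Blue viability, 72 h incubation. Signal is normalised to DMSO and benzethonium chloride controls. Value is the normalised response at dose 3.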

HCC1143 [12] = test: as above; details: 100 nM; incubation time: 72 h
Description: as §2

DU-4475 [13] = test: as above; details: 10 nM; incubation time: 72 h
Description: as §2

MDA-MB-468 = test: as above; details: 100 nM; incubation time: 72 h
Description: as §2

MDA-MB-453 = test: as above; details: 10 nM; incubation time: 72 h
Description: as §2

CAL-120 = test: as above; details: 100 nM; incubation time: 72 h
Description: as §2

HCC1937 = test: as above; details: 100 nM; incubation time: 72 h
Description: as §2

HCC1599 [14] = test: as above; details: 100 nM; incubation time: 72 h
Description: as §2

CAL-148 = test: as above; details: 10 nM; incubation time: 72 h
Description: as §2

Hs578T [15] = test: as above; details: 100 nM; incubation time: 72 h
Description: as §2

HDQ-P1 = test: as above; details: 10 nM; incubation time: 72 h
Description: as §2

CAL-51 = test: as above; details: 10 nM; incubation time: 72 h
Description: as §2

SK-BR-3 [16] = test: as above; details: 100 nM; incubation time: 72 h
Description: as §2

MDA-MB-231 [17] = test: as above; details: 100 nM; incubation time: 72 h
Description: as §2

CAL-85-1 [18] = test: as above; details: 10 nM; incubation time: 72 h
Description: as §2

BT-549 [19] = test: as above; details: 100 nM; incubation time: 72 h
Description: as §2

BT-474 [20] = test: as above; details: 100 nM; incubation time: 72 h
Description: as §2

MFM-223 = test: as above; details: 100 nM; incubation time: 72 h
Description: as §2

SMILES | drug sensitivity score (MDA-MB-436 [1]) | drug sensitivity score (HCC1143 [2]) | drug sensitivity score (DU-4475 [3]) | drug sensitivity score (HCC1599 [4]) | drug sensitivity score (Hs578T [5]) | drug sensitivity score (SK-BR-3 [6]) | drug sensitivity score (MDA-MB-231 [7]) | drug sensitivity score (CAL-85-1 [8]) | drug sensitivity score (BT-549 [9]) | drug sensitivity score (BT-474 [10]) | normalised viability (MDA-MB-436 [11]) | normalised viability (HCC1143 [12]) | normalised viability (DU-4475 [13]) | normalised viability (MDA-MB-468) | normalised viability (MDA-MB-453) [%] | normalised viability (CAL-120) | normalised viability (HCC1937) | normalised viability (HCC1599 [14]) | normalised viability (CAL-148) | normalised viability (Hs578T [15]) | normalised viability (HDQ-P1) | normalised viability (CAL-51) [%] | normalised viability (SK-BR-3 [16]) | normalised viability (MDA-MB-231 [17]) | normalised viability (CAL-85-1 [18]) | normalised viability (BT-549 [19]) [%] | normalised viability (BT-474 [20]) | normalised viability (MFM-223)
COc1cc2ncnc(Nc3ccc(F)c(Cl)c3)c2cc1OCCCN1CCOCC1 [Gefitinib] | 0 | 0 | 0 | 0 | 0 | 10.1 | 0 | 9.09 | 0 | 0 | 89.9% and 93.7% | 63% and 86.8% | 108% and 93.9% | 81.7% and 89.3% | 96.9 | 81.9% and 92.8% | 102% and 92% | 102% and 113% | 84.8% and 87.6% | 86.3% and 99.7% | 103% and 100% | 107 | 80.9% and 72.1% | 93.9% and 97% | 94.2% and 95.5% | 108 | 92.3% and 101% | 98.7% and 89.5%
CNC(=O)c1cc(Oc2ccc(NC(=O)Nc3ccc(Cl)c(C(F)(F)F)c3)c(F)c2)ccn1 [Regorafenib] | 1.08 | 0 | 1.79 | 1.51 | 3.86 | 1.17 | 0.969 | 0 | 1.23 | 2.89 | 121% | 74.6% | 104% | 107% | 110 | 87.7% | 90.4% | 135% | 93.6% | 98.4% | 89.6% | 101 | 89.3% | 75.3% | 97.1% | 112 | 98.3% | 92.6%
CN(C)c1nc(N(C)C)nc(N(C)C)n1 [Altretamine] | 0 | 0 | 0 | 0 | 0 | 0 | 0 | 0 | 0 | 0 | 89.5% | 91.7% | 104% | 104% | 97.5 | 95.5% | 91.8% | 109% | 102% | 96.1% | 105% | 103 | 92.2% | 96.8% | 102% | 84.4 | 117% | 97.2%
COc1cc2/c(=N/c3ccc(Br)cc3F)nc[nH]c2cc1OCC1CCN(C)CC1 [Vandetanib] | 0.551 | 0 | 0 | 0 | 0 | 0 | 0 | 0 | 0 | 3.47 | 71.3% | 111% | 110% | 93.8% | 104 | 98.3% | 81.8% | 96.3% | 92% | 67.8% | 76.7% | 99.3 | 63.8% | 94% | 104% | 89 | 90.6% | 112%
